Experiment [1] has as its system C9M-TF1 cells. The experiment can be described thus: Primary high-throughput screen, Alamar Blue, suspension cells. Format: cell-based. As to conditions: Homo sapiens, 72 h, compound at 10 μM, read-out: percentage kill, C9M. The method, then: (§1) Daughter Plates containing 10 μl of a […] solution of test compound selected from among the candidate compounds stored at […] are thawed at room temperature. A 10 μL volume of 0.1% DMSO in PBS is added to all wells of Column 12 and the wells in Row A-F of Column 1. A 10 μl volume of a pre-determined concentration of the P13-Kinase inhibitor LY294002 is added to wells in Row G and H of Column 1. A 90 μl volume of the appropriate cell culture medium is then added to each well and mixed by repeated aspiration/dispensing. The compounds are at a final test concentration of 10 μM.
(§2) Once the Daughter Plates have been prepared the media is removed from all wells of the cell culture plate using an 8-Channel Vacuum Aspirator. The contents of the Daughter Plates are then transferred to the appropriate wells of their relevant Test Plates and the Test Plates are incubated for 72 h at 37° C. and 5% CO2. At the end of this period Test Plates are assayed by Alamar Blue. A 10 μl volume of Alamar Blue is added to all wells of the Test Plate. The Test Plates are incubated for […] at 37° C. and 5% CO2 and finally read using the BioTek SYNERGY plate reader (Excitation 530125 nm-Emission 590135 nm). Percentage inhibition is determined using Microsoft Excel spreadsheet calculations.
(§3) Suspension cells are split 24 hours prior to drug treatment in order to bring the cultures into the log phase of growth. On the day of the assay the cells are plated directly into the Daughter Plates at the appropriate pre-determined seeding density (Table 1) in 90 μl volumes, the concentration of the test compounds thus being reduced to 10 μM. Cells are plated in all wells apart from those in Column 12 which contain 901 normal culture medium alone. The plates are incubated for 72 h at 37° C. and 5% CO2 after which time they are assayed by Alamar Blue as per the preceding example.
(§4) The figures appearing in the columns are the percentage kill achieved by that compound at 10 μM.
For orientation: Alamar Blue is a resazurin reagent that responds to reducing activity.

The subject of experiment [2] is FRAT2 overexpresing TF1 (FRAT2-C9M-TF1 cells). Described as above. As to conditions: Homo sapiens, compound at 10 μM, 72 h. Format: cell-based. The method, then: as §1, §2, §3, §4
In a further experiment the test system is LoVo. Kind of experiment: EC50 titration, Alamar Blue. The format is cell-based. As to conditions: Homo sapiens. How it is done:
(§5) On the day of the assay compounds are used to prepare dilution series on Titration Plates which are plated at ten times their final screening concentration in 10 μl aliquots.
(§6) For adherent cell lines plated 24 hours previously, a 90 μl volume of the appropriate cell culture medium is then added to each well of the Titration Plates and mixed by repeated aspiration/dispensing, thus taking the compounds to their final test concentration. Once the Titration Plates have been prepared the media is removed from all wells of the cell culture plate and the contents of the Titration Plates are then transferred to the appropriate wells of their relevant Test Plates and incubated for 72 h at 37° C. and 5% CO2 after which time they are assayed by Alamar Blue. Using a combination of Microsoft Excel and Graph Pad Prism, EC50s are determined.
(§7) The EC50 values are calculated using the values obtained from the Alamar Blue readout which are converted into a “Percentage of the Untreated Control” and using Graph Pad Prism these values are plotted against the logarithm of the test concentration. Using a non-linear regression analysis a sigmoidal dose-response curve is generated from which the EC50 is determined.

The subject of the next experiment is HCT116. Kind of experiment: EC50 titration, Alamar Blue. The format is cell-based. Particulars: Homo sapiens, HCT-116. How it is done:
as §5, §6, §7

Experiment [3] deals with breast cancer cell line MCF7. The experiment can be described thus: EC50 titration, Alamar Blue, adherent cells. Particulars: Homo sapiens, 72 h. Format: cell-based. How it is done: as §5, §6, §7
The subject of experiment [4] is non-transformed breast cell line MCF10A. The experiment can be described thus: EC50 titration, Alamar Blue, adherent cells. Particulars: Homo sapiens, MCF-10A, 72 h. The format is cell-based. How it is done:
as §5, §6, §7

Experiment [5] deals with colon cancer cell line HT29. Kind of experiment: EC50 titration, Alamar Blue, adherent cells. Particulars: Homo sapiens, HT-29, 72 h. The format is cell-based. How it is done: as §5, §6, §7
Experiment [6] has as its system C9M-TF1 cells. The experiment can be described thus: EC50 titration, Alamar Blue, suspension cells. Format: cell-based. Particulars: Homo sapiens, 72 h. The method, then: as §5
(§8) Suspension cells are split 24 hours prior to drug treatment in order to bring the cultures into the log phase of growth. On the day of the assay the cells are plated directly into the Titration Plates at the appropriate pre-determined seeding density (Table 1) in 90 μl volumes thus reducing the concentration of the compounds to their final test concentration. The plates are incubated for 72 hours at 37° C. and 5% CO2 after which time they are assayed by Alamar Blue.
as §7

For experiment [7], the system named is FRAT2-C9M-TF1 cells. The experiment can be described thus: EC50 titration, Alamar Blue, suspension cells. Particulars: for pEC50: Homo sapiens, 72 h, Alamar Blue. The format is cell-based, Human. How it is done: as §5, §8, §7
The test system of experiment [8] is U1810 Non Small Cell Lung Carcinoma. The experiment can be described thus: Primary high-throughput screen, Alamar Blue, adherent cells. As to conditions: U-1810; compound at 10 μM, 72 h; read-out: percentage kill, U1810. Format: cell-based. How it is done:
(§9) Adherent cells are plated at a pre-determined seeding density (Table 1) in flat-bottom 96 well plates 24 hours prior to drug treatment. The cell lines are plated in 100 μl volumes in each well. Cells are plated in all wells apart from those in Column 12 which contain 100 μL normal culture medium alone. These plates will be known as the Test Plates. The Test Plates are labelled with a Daughter Plate ID.
as §1, §2, §4

Experiment [9] deals with LS123 Colon adenocarcinoma (Dukes' type B). The experiment is described as above. Particulars: Homo sapiens, LS-123; compound at 10 μM, 72 h; read-out: percentage kill, LS123. Format: cell-based. How it is done: as §9, §1, §2, §4
For experiment [10], the system named is NCI ADR RES Breast adenocarcinoma (pleural effusion). The experiment is described as above. As to conditions: Homo sapiens, compound at 10 μM, 72 h, read-out: percentage kill, NCI ADR RES. Format: cell-based. How it is done: as §9, §1, §2, §4
The test system of experiment [11] is A549 Non Small Cell Lung Carcinoma. Described as above. The format is cell-based. As to conditions: Homo sapiens, compound at 10 μM, 72 h, read-out: percentage kill, A549. The method, then: as §9, §1, §2, §4
The subject of experiment [12] is CACO2 Colon adenocarcinoma. The description is as above. The format is cell-based. As to conditions: Homo sapiens, Caco-2; compound at 10 μM, 72 h; read-out: percentage kill, CAC02. The method, then:
as §9, §1, §2, §4

For experiment [13], the system named is SW480 Colon adenocarcinoma (Dukes' type B). The experiment is described as above. Particulars: Homo sapiens, compound at 10 μM, 72 h, read-out: percentage kill, SW480. Format: cell-based. How it is done: as §9, §1, §2, §4
Experiment [14] relates to MCF7 Mammary gland adenocarcinoma. The experiment is described as above. Format: cell-based. Particulars: Homo sapiens, compound at 10 μM, 72 h, read-out: percentage kill, MCF7. How it is done: as §9, §1, §2, §4
The subject of experiment [15] is PC3 Prostate carcinoma (bone metastasis). The experiment is described as above. Format: cell-based. As to conditions: compound at 10 μM, 72 h; read-out: percentage kill, PC3. How it is done:
as §9, §1, §2, §4

The test system of experiment [16] is HT29 Colorectal adenocarcinoma. The experiment is described as above. As to conditions: Homo sapiens, HT-29; compound at 10 μM, 72 h; read-out: percentage kill, HT29. The format is cell-based. The method, then: as §9, §1, §2, §4
For experiment [17], the system named is C9M-TF1 cells. Kind of experiment: LY294002 control plate titration, Alamar Blue. The format is cell-based. Particulars: Homo sapiens, 72 h, FIG. 8. The method, then: (§10) This example describes an assay to examine the effect of the PI3K inhibitor LY294002 on cell survival for both FRAT2-[…]-TF1 or […]-TF1 cells, as determined by Alamar Blue. The growth factor GMCSF mediates its survival effect through the PI3/AKT pathway. Consequently, inhibitors of this pathway will increase apoptosis in pathway-dependent cell lines. Both FRAT2-[…]-TF1 or […]-TF1 are split 24 hours prior to drug treatment in order to bring the cultures into the log phase of growth. On the day of the assay the cells are plated directly into a 96 well microtitre plates containing 10 uL volumes of a serial dilutions of LY294002, such that there was a final cell number of 5000 cells per well in 90 uL volumes thus reducing the concentration of the compounds to their final test concentration. The plates are incubated for 72 h at 37° C. and 5% CO2 after which time they are assayed by Alamar Blue. […] The overexpression of FRAT2 leads to the stabilization β-catenin through disassociation of GSK3β from Axin and through the inhibition of β-catenin phosphorylation which results in an increased level of β-catenin in the nucleus of the cell where it forms a complex with the HMB box transcription factors LEF and TCF as well as with CREB Binding Protein. […]

The test system of experiment [18] is FRAT2-C9M-TF1 cells. The experiment can be described thus: LY294002 control plate titration, Alamar Blue. Format: cell-based. Particulars: Homo sapiens, 72 h, FIG. 8. The method, then:
as §10

The next experiment concerns colon cancer. As to conditions: cited from earlier work.

Consider 3 molecules from patent publication US20080300263A1, “Pyrazolo [1,5-a] pyrimidine compounds and pharmaceutical compositions containing them” (EiRx Therapeutics plc, priority 2005, published 2008).

pEC50: −log10 of the molar value. Where two headings read alike, the source gives them in different places.

One may read the pEC50 as −log10 of the EC50, conventionally taken in molar units.

On to `COc1ccc(-c2cnn3c(NCc4ccccn4)ccnc23)cc1` [Compound 3], for which the inhibition at 10 µM in the experiment with C9M-TF1 cells [1] (first C9M column) was 8%; in the experiment with C9M-TF1 cells [1] (second C9M column) it was -12%; in experiment [2] (minus GMCSF, read-out: percentage kill, FRAT2−), 76%; in experiment [2] (plus GMCSF, read-out: percentage kill, FRAT2+) it was 40%; in experiment [8], 15%; in experiment [9] it was 95%. Further, the inhibition at 10 µM in experiment [10] was 66%; in experiment [11] it was 13%; in [12] it was 58%; in experiment [13], 64%; in [14], 85%; in experiment [15], -20%. In [16], the inhibition at 10 µM came out at 80%. Besides, the pEC50 in the experiment on LoVo was 5.66; with HCT116, 5.66; in experiment [3], 6.08; in experiment [4] it was 5.14; in experiment [5] it was 6.13; in the experiment on C9M-TF1 cells [6], 5.25. In addition, the pEC50 in the experiment with FRAT2-C9M-TF1 cells [7] (absence of growth factor) was 5.38; in the experiment with FRAT2-C9M-TF1 cells [7] (presence of growth factor) it was 5.65.
Regarding `O=c1cc(N2CCOCC2)oc2c(-c3ccccc3)cccc12` [LY294002, reference compound], the pEC50 was 5.52 in the experiment with LoVo; 4.68 in the experiment on HCT116; 5.97 in experiment [3]; 4.89 in experiment [4]; 5.27 in experiment [5]; 5.22 with C9M-TF1 cells [6]. Besides, the pEC50 in the experiment on FRAT2-C9M-TF1 cells [7] (absence of growth factor) is 4.12; in the experiment with FRAT2-C9M-TF1 cells [7] (presence of growth factor), 4.29; in the experiment with C9M-TF1 cells [17] it was about 5.22; in the experiment with FRAT2-C9M-TF1 cells [18], about 4.30. Also, the “difference of EC50 between FRAT2-C9M-TF1 and C9M-TF1 cells” value in the experiment with FRAT2-C9M-TF1 cells [7] (FRAT2-C9M-TF1 cells more resistant) is “approx. 8.5 fold”.
On to “Avastin: FDA-approved monoclonal antibody (Genentech) blocking vascular endothelial growth factor (VEGF)”, for which the “lived longer than patients on the standard regimen alone” value in the experiment with colon cancer was “about five”.
